Laboratory results as given in the kinase profiling compilation of Christmann-Franck et al. (2016).

Experiments:
Assay in all cases: radiometric filter-binding kinase assay
AURKC (human) = AURKC (human) (UniProt Q9UQB9)
MAPK11 (human) = MAPK11 (human) (UniProt Q15759)
NEK7 (human) = NEK7 (human) (UniProt Q8TDX7)
PAK6 (human) = PAK6 (human) (UniProt Q9NQU5)
CAMKK1 (human) = CAMKK1 (human) (UniProt Q8N5S9)
CAMKK1 (human), sequence (Q8N5S9 whole entry, looked up): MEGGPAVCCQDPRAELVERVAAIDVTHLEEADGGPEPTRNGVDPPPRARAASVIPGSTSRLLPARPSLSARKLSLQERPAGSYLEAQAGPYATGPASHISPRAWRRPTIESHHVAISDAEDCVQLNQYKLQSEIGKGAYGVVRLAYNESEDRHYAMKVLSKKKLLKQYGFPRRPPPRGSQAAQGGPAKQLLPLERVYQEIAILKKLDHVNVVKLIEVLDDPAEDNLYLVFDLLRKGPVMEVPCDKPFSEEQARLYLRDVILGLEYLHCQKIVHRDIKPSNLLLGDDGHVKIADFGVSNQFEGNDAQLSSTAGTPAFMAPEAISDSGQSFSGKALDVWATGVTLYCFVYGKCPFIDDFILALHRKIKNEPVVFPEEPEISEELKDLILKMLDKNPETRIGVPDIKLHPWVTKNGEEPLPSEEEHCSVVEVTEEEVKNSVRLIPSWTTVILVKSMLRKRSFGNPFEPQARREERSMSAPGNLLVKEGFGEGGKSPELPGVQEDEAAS

MAPK11 (human), sequence (Q15759 whole entry, looked up): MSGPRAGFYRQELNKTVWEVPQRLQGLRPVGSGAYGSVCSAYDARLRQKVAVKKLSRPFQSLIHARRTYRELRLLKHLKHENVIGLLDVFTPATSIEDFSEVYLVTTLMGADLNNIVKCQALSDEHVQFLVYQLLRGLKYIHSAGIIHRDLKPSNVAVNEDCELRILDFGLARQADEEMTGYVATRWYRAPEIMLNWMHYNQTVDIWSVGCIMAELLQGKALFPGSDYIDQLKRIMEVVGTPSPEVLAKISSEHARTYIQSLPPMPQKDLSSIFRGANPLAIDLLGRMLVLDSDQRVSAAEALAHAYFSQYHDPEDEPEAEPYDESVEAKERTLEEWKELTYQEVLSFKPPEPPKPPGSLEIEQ
AURKC (human), sequence (Q9UQB9 whole entry, looked up): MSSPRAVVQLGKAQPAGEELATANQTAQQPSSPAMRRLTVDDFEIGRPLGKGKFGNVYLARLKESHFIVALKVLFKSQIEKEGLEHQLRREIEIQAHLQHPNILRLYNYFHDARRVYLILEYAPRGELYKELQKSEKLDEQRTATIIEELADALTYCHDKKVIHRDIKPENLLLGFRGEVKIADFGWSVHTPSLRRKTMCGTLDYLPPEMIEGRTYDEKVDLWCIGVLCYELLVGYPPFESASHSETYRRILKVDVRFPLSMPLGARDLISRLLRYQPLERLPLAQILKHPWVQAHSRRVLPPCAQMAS
PAK6 (human), sequence (Q9NQU5 whole entry, looked up): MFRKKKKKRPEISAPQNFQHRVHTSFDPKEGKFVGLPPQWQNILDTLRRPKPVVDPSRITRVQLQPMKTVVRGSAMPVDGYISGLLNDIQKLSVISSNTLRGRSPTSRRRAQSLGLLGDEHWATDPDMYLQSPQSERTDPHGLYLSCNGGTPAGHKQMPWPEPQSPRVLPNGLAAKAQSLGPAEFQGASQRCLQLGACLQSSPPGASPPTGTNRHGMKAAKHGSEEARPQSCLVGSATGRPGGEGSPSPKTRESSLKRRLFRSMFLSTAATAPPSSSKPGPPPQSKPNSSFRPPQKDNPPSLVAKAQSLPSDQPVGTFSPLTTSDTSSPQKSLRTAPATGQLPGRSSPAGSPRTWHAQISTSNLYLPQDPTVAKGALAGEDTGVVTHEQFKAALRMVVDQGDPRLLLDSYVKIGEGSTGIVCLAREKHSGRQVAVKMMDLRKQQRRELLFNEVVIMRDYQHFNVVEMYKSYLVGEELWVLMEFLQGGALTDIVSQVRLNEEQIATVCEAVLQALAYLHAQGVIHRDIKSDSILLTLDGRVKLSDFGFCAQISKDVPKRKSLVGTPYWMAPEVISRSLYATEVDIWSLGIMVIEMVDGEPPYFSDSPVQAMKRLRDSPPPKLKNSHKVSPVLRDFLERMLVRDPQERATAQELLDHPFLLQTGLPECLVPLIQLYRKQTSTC
NEK7 (human), sequence (Q8TDX7 whole entry, looked up): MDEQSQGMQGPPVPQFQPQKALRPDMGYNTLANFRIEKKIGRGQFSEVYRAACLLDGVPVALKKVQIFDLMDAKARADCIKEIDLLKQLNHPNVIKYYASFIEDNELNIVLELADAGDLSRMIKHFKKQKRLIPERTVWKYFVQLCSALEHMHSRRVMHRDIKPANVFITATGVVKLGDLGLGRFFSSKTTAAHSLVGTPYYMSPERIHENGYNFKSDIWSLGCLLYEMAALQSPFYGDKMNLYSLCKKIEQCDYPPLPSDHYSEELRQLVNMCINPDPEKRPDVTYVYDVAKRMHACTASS

| Compound | residual activity (AURKC (human); compound 1.0 µM) | residual activity (AURKC (human); compound 10.0 µM) | residual activity (MAPK11 (human); compound 1.0 µM) | residual activity (MAPK11 (human); compound 10.0 µM) | residual activity (NEK7 (human); compound 1.0 µM) | residual activity (NEK7 (human); compound 10.0 µM) | residual activity (PAK6 (human); compound 1.0 µM) | residual activity (PAK6 (human); compound 10.0 µM) | residual activity (CAMKK1 (human); compound 1.0 µM) | residual activity (CAMKK1 (human); compound 10.0 µM) | residual activity (MAPK11 (human); compound 50.0 µM) | residual activity (PAK6 (human); compound 50.0 µM) | residual activity (AURKC (human); compound 50.0 µM) | residual activity (NEK7 (human); compound 50.0 µM) | further results |
| --- | --- | --- | --- | --- | --- | --- | --- | --- | --- | --- | --- | --- | --- | --- | --- |
| Cn1nc(Nc2ccc(F)cc2)c2c(N)ncnc21 | 125% | 117% | 132% | 127% | 94% | 99% | 113% | 101% | 89% | 112% |  |  |  |  |  |
| Oc1ccc(/C=C/c2cc(O)cc(O)c2)cc1 | 75% |  | 112% | 93% | 94% |  | 108% | 106% | 98% |  | 108% | 100% | 32% | 95% | residual activity (CAMKK1 (human); compound 50.0 µM): 30% |
| Cc1cccc(Nc2nn(C)c3ncnc(N)c23)c1 | 92% | 117% | 131% | 111% | 88% | 91% | 103% | 102% | 111% | 114% |  |  |  |  |  |

Second part, led by results:

| residual activity (AURKC (human); compound 1.0 µM) | residual activity (AURKC (human); compound 10.0 µM) | residual activity (MAPK11 (human); compound 1.0 µM) | residual activity (MAPK11 (human); compound 10.0 µM) | residual activity (NEK7 (human); compound 1.0 µM) | residual activity (NEK7 (human); compound 10.0 µM) | residual activity (PAK6 (human); compound 1.0 µM) | residual activity (PAK6 (human); compound 10.0 µM) | residual activity (CAMKK1 (human); compound 1.0 µM) | residual activity (CAMKK1 (human); compound 10.0 µM) | residual activity (MAPK11 (human); compound 50.0 µM) | residual activity (PAK6 (human); compound 50.0 µM) | residual activity (AURKC (human); compound 50.0 µM) | residual activity (NEK7 (human); compound 50.0 µM) | Compound | further results |
| --- | --- | --- | --- | --- | --- | --- | --- | --- | --- | --- | --- | --- | --- | --- | --- |
| 13% | 7% | 102% | 95% | 84% | 82% | 82% | 71% | 97% | 101% |  |  |  |  | COc1ccc2c(c1)c1c3c(c4c5ccccc5n(C)c4c1n2CC(O)CN(C)C)C(=O)NC3=O (stereo unspecified) | residual activity (AURKC (human); compound 0.1 µM): 48%; residual activity (MAPK11 (human); compound 0.1 µM): 119%; residual activity (NEK7 (human); compound 0.1 µM): 94%; residual activity (PAK6 (human); compound 0.1 µM): 107%; residual activity (CAMKK1 (human); compound 0.1 µM): 109% |
|  |  | 82% | 91% | 99% |  |  | 95% |  |  | 106% | 104% |  |  | CCCC(CCC)C(=O)O |  |
|  |  |  | 89% |  |  |  | 69% |  |  | 84% | 92% | 30% | 102% | N#Cc1c(O)c2c(-c3ccc(-c4ccccc4O)cc3)csc2[nH]c1=O | residual activity (MAPK11 (human); compound 100.0 µM): 77%; residual activity (PAK6 (human); compound 100.0 µM): 82% |
